This is an account of results in paper PMC3401643 (2009).

The target of the test is T1, retinoid X receptor α (RXRα) (Homo sapiens, UniProt P19793).
T1 sequence (P19793 223-462): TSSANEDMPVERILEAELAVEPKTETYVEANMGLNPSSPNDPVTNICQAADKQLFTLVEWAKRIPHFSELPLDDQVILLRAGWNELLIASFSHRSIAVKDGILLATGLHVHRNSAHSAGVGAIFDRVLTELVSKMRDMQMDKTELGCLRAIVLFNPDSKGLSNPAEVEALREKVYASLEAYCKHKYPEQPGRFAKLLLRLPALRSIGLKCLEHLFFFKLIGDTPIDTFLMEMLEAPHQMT
The format is binding.

Structures are written as SMILES.

Consider `C[C@@H](C(=O)O)c1ccc(-c2ccccc2)c(F)c1` [R-Flur, (R)-flurbiprofen], for which the IC50 (as a rule, the concentration at which inhibition is half-maximal) was around 75 µM.
